# Experimental data from US12528768B2, “Crystalline form of a 7H-benzo[7]annulene-2-carboxylic acid derivative” (Sanofi, priority 2019, dated 2026).
# Tests used:
# [1] = Water sorption isotherms using Dynamic Vapor Sorption (DVS); type: physicochemical; conditions: for Change in Mass / Change in Mass (water uptake): DVS sorption step, 25° C.; for Change in Mass (water uptake): target RH 95%; for weight gain determined by DVS: about 25° C. (±0.2° C.)
# Procedure: III. Water Sorption Isotherms Using Dynamic Vapor Sorption (DVS) Experiments were performed on DVS automated gravimetric vapor sorption analyzer (Surface Measurement Systems Ltd., London, UK). Uptake and loss of water by the sample were gravimetrically measured with an ultra-microbalance with a mass resolution of ±0.1 μg. A controlled relative humidity was generated by mixing different proportions of dry and water saturated carrier gas streams. The temperature was maintained constant at 25.0±0.2° C., by enclosing the entire system in a temperature controlled incubator. A sample size between 5 and 20 mg was used. Prior to being exposed to any water vapor the sample was dried at 0% relative humidity (RH) to remove most surface water present and establish a dry, baseline mass. Next, the sample was exposed to an increasing relative humidity raised by steps of 5% RH, from 0 to 95% RH.
# [2] = Physical stability of the solid form (exposure to heat, moisture, nitrogen or ambient conditions, followed by XRPD); type: physicochemical; conditions: for stability of the solid form (in words): overall judgement; for result of exposure to heat and/or moisture: heat (for example 40° C.) and/or moisture
# Procedure: II. X-Ray Powder Diffraction (XRPD) Analyses were carried out at room temperature on a Brucker D4 Endeavor instrument using the Bragg-Brentano parafocusing geometry. A sealed copper anode X-ray tube was used (λ, CuKα average=1.54178 Å). A LynxEye linear detector completed the setup. A counting time of few seconds per step in an angular range of from few 2-Theta degrees to several dozen 2-Theta degrees with a 0.016° step size in 20 was used for each sample analysis. For each experiment, the powder was deposited onto the surface of a sample holder.
Structure (SMILES),Change in Mass ([1]; target RH 0%),Change in Mass ([1]; target RH 10%),Change in Mass ([1]; target RH 20%),Change in Mass ([1]; target RH 30%),Change in Mass ([1]; target RH 40%),Change in Mass ([1]; target RH 50%),Change in Mass ([1]; target RH 60%),Change in Mass ([1]; target RH 70%),Change in Mass ([1]; target RH 80%),Change in Mass ([1]; target RH 90%),stability of the solid form (in words) [2],also measured
"O=C(O)c1ccc2c(c1)CCCC(c1ccc(Cl)cc1Cl)=C2c1ccc(O[C@H]2CCN(CCCF)C2)cc1 [anhydrate crystalline Form 2, 6-(2,4-dichlorophenyl)-5-[4-[(3S)-1-(3-fluoropropyl)pyrrolidin-3-yl]oxyphenyl]-8,9-dihydro-7H-benzo[7]annulene-2-carboxylic acid]",0%,0.01%,0.02%,0.02%,0.03%,0.03%,0.04%,0.05%,0.05%,0.06%,stable,"hygroscopicity (in words) ([1]; 0 to 95% relative humidity, about 25° C., European pharmacopoeia wording): no hygroscopicity; Change in Mass (water uptake) [1]: 0.06%; conversion after exposure to moisture ([2]; exposure to moisture): does not convert to another crystalline form; effect of temperature variations on crystal structure ([2]; exposure to temperature variations): does not alter the crystal structure before its melting; stability under ambient conditions of temperature and pressure ([2]; room temperature and ambient pressure): thermodynamically more stable"
O=C(O)c1ccc2c(c1)CCCC(c1ccc(Cl)cc1Cl)=C2c1ccc(O[C@H]2CCN(CCCF)C2)cc1 [2-propanol solvate],,,,,,,,,,,,transformation upon heating ([2]; upon heating): transforms into anhydrate Form 3 which itself generally transforms into anhydrate Form 2
O=C(O)c1ccc2c(c1)CCCC(c1ccc(Cl)cc1Cl)=C2c1ccc(O[C@H]2CCN(CCCF)C2)cc1 [DCM solvate],,,,,,,,,,,unstable,result of exposure to heat and/or moisture [2]: formation of the anhydrate Form 1; result of exposure to heat and/or N2 ([2]; heat and/or N2): formation of the anhydrate Form 4
O=C(O)c1ccc2c(c1)CCCC(c1ccc(Cl)cc1Cl)=C2c1ccc(O[C@H]2CCN(CCCF)C2)cc1 [ethanol solvate],,,,,,,,,,,unstable,result of exposure to heat and/or moisture [2]: formation of the anhydrate Form 1
"O=C(O)c1ccc2c(c1)CCCC(c1ccc(Cl)cc1Cl)=C2c1ccc(O[C@H]2CCN(CCCF)C2)cc1 [compound of formula (1), 6-(2,4-dichlorophenyl)-5-[4-[(3S)-1-(3-fluoropropyl)pyrrolidin-3-yl]oxyphenyl]-8,9-dihydro-7H-benzo[7]annulene-2-carboxylic acid]",,,,,,,,,,,,"storage requirement for stability over time ([2]; amorphous form, industrial scale handling): needs storage under refrigerated conditions to maintain its stability over time"
O=C(O)c1ccc2c(c1)CCCC(c1ccc(Cl)cc1Cl)=C2c1ccc(O[C@H]2CCN(CCCF)C2)cc1 [THF solvate],,,,,,,,,,,unstable,result of exposure to heat and/or moisture [2]: formation of the anhydrate form 1
"O=C(O)c1ccc2c(c1)CCCC(c1ccc(Cl)cc1Cl)=C2c1ccc(O[C@H]2CCN(CCCF)C2)cc1 [anhydrate crystalline Form 4, 6-(2,4-dichlorophenyl)-5-[4-[(3S)-1-(3-fluoropropyl)pyrrolidin-3-yl]oxyphenyl]-8,9-dihydro-7H-benzo[7]annulene-2-carboxylic acid]",0.00%,0.07%,0.21%,0.34%,0.43%,0.51%,0.58%,0.64%,0.71%,0.75%,metastable,weight gain determined by DVS ([1]; at 90% relative humidity): 0.75 weight %
"O=C(O)c1ccc2c(c1)CCCC(c1ccc(Cl)cc1Cl)=C2c1ccc(O[C@H]2CCN(CCCF)C2)cc1 [anhydrate crystalline Form 3, 6-(2,4-dichlorophenyl)-5-[4-[(3S)-1-(3-fluoropropyl)pyrrolidin-3-yl]oxyphenyl]-8,9-dihydro-7H-benzo[7]annulene-2-carboxylic acid]",0.00%,0.78%,1.13%,1.29%,1.46%,2.21%,2.46%,2.62%,2.73%,2.84%,metastable,Change in Mass (water uptake) [1]: 2.92%; weight gain determined by DVS ([1]; at 95% relative humidity): 2.92 weight %

# Second part, led by results:
Change in Mass ([1]; target RH 0%),Change in Mass ([1]; target RH 10%),Change in Mass ([1]; target RH 20%),Change in Mass ([1]; target RH 30%),Change in Mass ([1]; target RH 40%),Change in Mass ([1]; target RH 50%),Change in Mass ([1]; target RH 60%),Change in Mass ([1]; target RH 70%),Change in Mass ([1]; target RH 80%),Change in Mass ([1]; target RH 90%),stability of the solid form (in words) [2],Structure (SMILES),also measured
,,,,,,,,,,physically unstable,O=C(O)c1ccc2c(c1)CCCC(c1ccc(Cl)cc1Cl)=C2c1ccc(O[C@H]2CCN(CCCF)C2)cc1 [butanol solvate],result of exposure to ambient conditions or dry nitrogen [2]: converts to an amorphous form
0.00%,0.20%,0.54%,0.99%,1.54%,2.09%,2.57%,2.99%,3.36%,3.76%,metastable,"O=C(O)c1ccc2c(c1)CCCC(c1ccc(Cl)cc1Cl)=C2c1ccc(O[C@H]2CCN(CCCF)C2)cc1 [anhydrate crystalline Form 1, 6-(2,4-dichlorophenyl)-5-[4-[(3S)-1-(3-fluoropropyl)pyrrolidin-3-yl]oxyphenyl]-8,9-dihydro-7H-benzo[7]annulene-2-carboxylic acid]",Change in Mass (water uptake) [1]: 4.07%; weight gain determined by DVS ([1]; at 95% relative humidity): 4.07 weight %
,,,,,,,,,,physically unstable,O=C(O)c1ccc2c(c1)CCCC(c1ccc(Cl)cc1Cl)=C2c1ccc(O[C@H]2CCN(CCCF)C2)cc1 [acetone solvate],result of exposure to ambient conditions or dry nitrogen [2]: converts to low crystalline materials
,,,,,,,,,,physically unstable,"O=C(O)c1ccc2c(c1)CCCC(c1ccc(Cl)cc1Cl)=C2c1ccc(O[C@H]2CCN(CCCF)C2)cc1 [1,4-dioxane solvate]","conversion at room temperature ([2]; room temperature, one week): converts at room temperature to an unknown poorly crystallized solid form"
